System: 997726-040-R-J2-PDC tumor spheroids, viability
Experiment: Anticancer human tumor 997726-040-R-J2-PDC patient-derived squamous cell lung carcinoma cell line growth inhibition [PI3K]
Details: spheroids with HUVEC and MSC; for viability, T/C: stronger effect = lower value
Excerpt: Combinatorial screen of targeted agents with the PI3K inhibitors inavolisib, alpelisib, duvelisib, and copanlisib in multi-cell type tumor spheroids
A high-throughput screen of multi-cell type tumor spheroids was designed to identify active combinations of targeted small molecules and PI3K pathway inhibitors. Complex spheroids include a stromal component modeled by human endothelial cells (HUVEC) and fibroblasts modeled by human mesenchymal stem cells (MSCs). The concentration ranges selected for each drug and investigational agent were based upon clinically achievable concentrations if the clinical Cmax of the agent was known.
Compounds. The drugs and investigational agents: inavolisib (NSC800729), alpelisib (NSC765974), duvelisib (NSC772469), copanlisib (NSC816437), ipatasertib (NSC767898), afuresertib (NSC778305), talazoparib (NSC767125), sapanisertib (NSC764658), selumetinib (NSC741078), tovorafenib (DAY101, NSC766906), vemurafenib (NSC761431), ravoxertinib (NSC781343), sotorasib (NSC818433), MRTX1133 (NSC 836407), abemaciclib (NSC 768073), palbociclib (NSC758247), venetoclax (NSC 766270), SY5609 (NSC837396), enzalutamide (NSC755605), and darolutamide (NSC825331), were obtained from the National Cancer Institute (NCI) Developmental Therapeutics Program Chemical Repository. The FDA-approved anticancer drug set is available from the NCI Developmental Therapeutics Program. […] The stock solutions were prepared in dimethyl sulfoxide (DMSO, Sigma-Aldrich, St. Louis, MO, cat. D2650) at 800-fold the tested concentration and stored at -70 degrees C prior to their use. All drugs and investigational agents were tested over a range starting from a high concentration at or near the clinical Cmax and decreasing in half-log increments. If the clinical Cmax for an agent had not been determined, the highest concentration tested was 10 microM.
Cell Culture. All cells were maintained in an incubator at 37 degrees C and 5% CO2 with 95% humidity. The PDC lines were cultured according to standard operating procedures established by the NCI PDMR (https://pdmr.cancer.gov/sops/default.htm). All PDCs were thawed and cultured in Matrigel-coated flasks prepared with a working solution of 1X Ham's F-12 nutrient mix, without supplementation (Invitrogen, Waltham, MA, cat. 11765054), 100 U/mL penicillin-streptomycin (Invitrogen, cat. 15140122), and 2.5% Matrigel (Corning Inc., Corning, NY, cat. 354248) for the first three passages. The 354836-022-R-J1-PDC, 475296-252-R-J1-PDC, and 997726-040-R-J2-PDC lines were cultured in 6A media, which includes advanced DMEM/F-12 (Thermo Fisher Scientific, cat. 12634028), 10 mM HEPES (Thermo Fisher Scientific, cat. 15630080), 1X GlutaMAX supplement (Thermo Fisher Scientific, cat. 35050061), 0.1 mg/mL primocin (InvivoGen, San Diego, CA, cat. ant-pm-2), 10% defined fetal bovine serum, heat inactivated (HyClone Laboratories Inc., Logan, UT, cat. SH30070.03HI), 50% L-WRN conditioned media (ATCC, cat. CRL-3276), 1.25 mM N-Acetyl-L-cysteine (Sigma-Aldrich, cat. A9165), 10 mM nicotinamide (Sigma-Aldrich, cat. N0636), 1X B-27 supplement (Thermo Fisher Scientific, cat. 17504044), 1X N-2 supplement (Thermo Fisher Scientific, cat. 17502048), and 10 microM Y-27632 dihydrochloride (Tocris Bioscience, Bristol, United Kingdom, cat. 1254). The 624824-186-R-J2-PDC line was cultured in 6C/Colon 1B media, which includes all 6A media components plus 50 ng/mL human EGF recombinant protein (Thermo Fisher Scientific, cat. PHG0311). […]
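Further: spheroids exposed to compounds for seven days before readout.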

**Q.** Which viability, T/C (compound 0.0316 µM) does the source give for C#Cc1c(F)ccc2cc(O)cc(-c3ncc4c(N5CC6CCC(C5)N6)nc(OCC56CCCN5CC(F)C6)nc4c3F)c12 (configuration not stated) here?
**A.** The viability, T/C was 105% [middle of 4 runs].

**Q.** What about the viability, T/C (compound 0.1 µM) of the same compound?
**A.** Its viability, T/C is 96% [middle of 4 runs].

**Q.** What about the viability, T/C (compound 0.316 µM) of the same compound?
**A.** Its viability, T/C is 96.5% [middle of 4 runs].

**Q.** And the viability, T/C (compound 1 µM)?
**A.** Its viability, T/C is 96.6% [middle of 4 runs].

**Q.** What about the viability, T/C (compound 3.16 µM) of the same compound?
**A.** Its viability, T/C is 92.6% [middle of 4 runs].

**Q.** What about the viability, T/C (compound 10 µM) of the same compound?
**A.** Its viability, T/C is 77.5% [middle of 4 runs].

**Q.** What about the IC50 (curve of compound) of the same compound?
**A.** The IC50 was greater than 10000 nM.

**Q.** How did the viability, T/C (compound 0.1 µM) turn out when C[C@@H](NC(=O)c1ncnc(N)c1Cl)c1ncc(C(=O)Nc2cc(C(F)(F)F)c(Cl)cn2)s1 was run?
**A.** The viability, T/C was 125% [middle of 4 runs].

**Q.** And the viability, T/C (compound 0.316 µM)?
**A.** The viability, T/C was 117% [middle of 4 runs].

**Q.** What about the viability, T/C (compound 1 µM) of the same compound?
**A.** The viability, T/C was 110% [middle of 4 runs].

**Q.** And the viability, T/C (compound 3.16 µM)?
**A.** The viability, T/C was 105% [middle of 4 runs].

**Q.** And the viability, T/C (compound 10 µM)?
**A.** The viability, T/C was 73.3% [middle of 4 runs].

**Q.** What about the IC50 (curve of compound) of the same compound?
**A.** The IC50 was greater than 10000 nM.

**Q.** Which viability, T/C (compound 0.0316 µM) does the source give for Cn1ncc(Cl)c1-c1cc(C(=O)NC(CN)Cc2cccc(F)c2)sc1Cl (configuration not stated) here?
**A.** Its viability, T/C is 84.3% [middle of 4 runs].

**Q.** What about the viability, T/C (compound 0.1 µM) of the same compound?
**A.** The viability, T/C was 46.1% [middle of 4 runs].

**Q.** And the viability, T/C (compound 0.316 µM)?
**A.** Its viability, T/C is 27.1% [middle of 4 runs].

**Q.** What about the viability, T/C (compound 1 µM) of the same compound?
**A.** The viability, T/C was 12.9% [middle of 4 runs].

**Q.** What about the viability, T/C (compound 3.16 µM) of the same compound?
**A.** The viability, T/C was 9.41% [middle of 4 runs].

**Q.** And the viability, T/C (compound 10 µM)?
**A.** Its viability, T/C is 12.4% [middle of 4 runs].

**Q.** And the IC50 (curve of compound)?
**A.** The IC50 was 92.5 nM [middle of 4 runs].

**Q.** With Cn1cnc2c(F)c(Nc3ccc(Br)cc3Cl)c(C(=O)NOCCO)cc21 + CC(Nc1ccc2c(c1)OCCn1cc(N3C(=O)OCC3C(F)F)nc1-2)C(N)=O as the compound, how does the IC50 (curve of first compound, second compound 0.00316 µM) read?
**A.** The IC50 was 154 nM.

**Q.** What about the IC50 (curve of first compound, second compound 0.01 µM) of the same compound?
**A.** The IC50 was 82.4 nM.

**Q.** And the IC50 (curve of first compound, second compound 0.0316 µM)?
**A.** Its IC50 is 13.8 nM.

**Q.** What about the IC50 (curve of first compound, second compound 0.1 µM) of the same compound?
**A.** Its IC50 is less than 9.49 nM.

**Q.** And the IC50 (curve of first compound, second compound 0.316 µM)?
**A.** Its IC50 is less than 9.49 nM.

**Q.** And the IC50 (curve of first compound, second compound 1 µM)?
**A.** Its IC50 is less than 9.49 nM.

**Q.** And the viability, T/C (second compound 0.00316 µM, first compound 0.00949 µM)?
**A.** Its viability, T/C is 70.5%.

**Q.** And the viability, T/C (second compound 0.00316 µM, first compound 0.03 µM)?
**A.** The viability, T/C was 65%.

**Q.** What about the viability, T/C (second compound 0.00316 µM, first compound 0.0949 µM) of the same compound?
**A.** The viability, T/C was 58.1%.

**Q.** And the viability, T/C (second compound 0.00316 µM, first compound 0.3 µM)?
**A.** The viability, T/C was 39.1%.

**Q.** What about the viability, T/C (second compound 0.00316 µM, first compound 0.949 µM) of the same compound?
**A.** Its viability, T/C is 35.8%.

**Q.** And the viability, T/C (second compound 0.00316 µM, first compound 3 µM)?
**A.** The viability, T/C was 29.1%.

**Q.** And the viability, T/C (second compound 0.01 µM, first compound 0.00949 µM)?
**A.** The viability, T/C was 62%.

**Q.** What about the viability, T/C (second compound 0.01 µM, first compound 0.03 µM) of the same compound?
**A.** The viability, T/C was 59%.

**Q.** And the viability, T/C (second compound 0.01 µM, first compound 0.0949 µM)?
**A.** Its viability, T/C is 47.6%.

**Q.** What about the viability, T/C (second compound 0.01 µM, first compound 0.3 µM) of the same compound?
**A.** Its viability, T/C is 40.8%.

**Q.** What about the viability, T/C (second compound 0.01 µM, first compound 0.949 µM) of the same compound?
**A.** The viability, T/C was 39.2%.

**Q.** What about the viability, T/C (second compound 0.01 µM, first compound 3 µM) of the same compound?
**A.** Its viability, T/C is 30.9%.

**Q.** What about the viability, T/C (second compound 0.0316 µM, first compound 0.00949 µM) of the same compound?
**A.** The viability, T/C was 49.1%.

**Q.** And the viability, T/C (second compound 0.0316 µM, first compound 0.03 µM)?
**A.** The viability, T/C was 50.8%.

**Q.** And the viability, T/C (second compound 0.0316 µM, first compound 0.0949 µM)?
**A.** Its viability, T/C is 42.2%.

**Q.** What about the viability, T/C (second compound 0.0316 µM, first compound 0.3 µM) of the same compound?
**A.** Its viability, T/C is 30.2%.

**Q.** What about the viability, T/C (second compound 0.0316 µM, first compound 0.949 µM) of the same compound?
**A.** Its viability, T/C is 28.2%.

**Q.** And the viability, T/C (second compound 0.0316 µM, first compound 3 µM)?
**A.** The viability, T/C was 21.1%.

**Q.** What about the viability, T/C (second compound 0.1 µM, first compound 0.00949 µM) of the same compound?
**A.** The viability, T/C was 36.6%.

**Q.** And the viability, T/C (second compound 0.1 µM, first compound 0.03 µM)?
**A.** Its viability, T/C is 42%.

**Q.** And the viability, T/C (second compound 0.1 µM, first compound 0.0949 µM)?
**A.** The viability, T/C was 33%.

**Q.** What about the viability, T/C (second compound 0.1 µM, first compound 0.3 µM) of the same compound?
**A.** Its viability, T/C is 22.1%.

**Q.** And the viability, T/C (second compound 0.1 µM, first compound 0.949 µM)?
**A.** The viability, T/C was 21%.

**Q.** What about the viability, T/C (second compound 0.1 µM, first compound 3 µM) of the same compound?
**A.** The viability, T/C was 14%.

**Q.** What about the viability, T/C (second compound 0.316 µM, first compound 0.00949 µM) of the same compound?
**A.** Its viability, T/C is 32.1%.

**Q.** What about the viability, T/C (second compound 0.316 µM, first compound 0.03 µM) of the same compound?
**A.** The viability, T/C was 27.9%.

**Q.** And the viability, T/C (second compound 0.316 µM, first compound 0.0949 µM)?
**A.** Its viability, T/C is 23.7%.

**Q.** And the viability, T/C (second compound 0.316 µM, first compound 0.3 µM)?
**A.** Its viability, T/C is 20.5%.

**Q.** What about the viability, T/C (second compound 0.316 µM, first compound 0.949 µM) of the same compound?
**A.** The viability, T/C was 14%.

**Q.** What about the viability, T/C (second compound 0.316 µM, first compound 3 µM) of the same compound?
**A.** Its viability, T/C is 15%.

**Q.** And the viability, T/C (second compound 1 µM, first compound 0.00949 µM)?
**A.** The viability, T/C was 24.5%.

**Q.** And the viability, T/C (second compound 1 µM, first compound 0.03 µM)?
**A.** The viability, T/C was 22.4%.

**Q.** What about the viability, T/C (second compound 1 µM, first compound 0.0949 µM) of the same compound?
**A.** Its viability, T/C is 21.7%.

**Q.** And the viability, T/C (second compound 1 µM, first compound 0.3 µM)?
**A.** The viability, T/C was 20.3%.

**Q.** And the viability, T/C (second compound 1 µM, first compound 0.949 µM)?
**A.** Its viability, T/C is 15%.

**Q.** And the viability, T/C (second compound 1 µM, first compound 3 µM)?
**A.** The viability, T/C was 12.9%.
